Results: ChEMBL document CHEMBL1201862, “PubChem BioAssay data set” (2004)
Activity calls are given as the source filed them. Cut-off read from the data, not from the text of the source: actives have a measured IC50 and inactives only a lower limit.

Target: Envelope glycoprotein gp160 (Human immunodeficiency virus 1, UniProt Q6QLK5)
Assay: inhibitors of HIV fusion peptide binding, primary screen, biochemical, uHTS, fluorescence dequenching (AID 1986)

Chain of Envelope glycoprotein gp160 (Q6QLK5 whole entry, the tested form may be a part): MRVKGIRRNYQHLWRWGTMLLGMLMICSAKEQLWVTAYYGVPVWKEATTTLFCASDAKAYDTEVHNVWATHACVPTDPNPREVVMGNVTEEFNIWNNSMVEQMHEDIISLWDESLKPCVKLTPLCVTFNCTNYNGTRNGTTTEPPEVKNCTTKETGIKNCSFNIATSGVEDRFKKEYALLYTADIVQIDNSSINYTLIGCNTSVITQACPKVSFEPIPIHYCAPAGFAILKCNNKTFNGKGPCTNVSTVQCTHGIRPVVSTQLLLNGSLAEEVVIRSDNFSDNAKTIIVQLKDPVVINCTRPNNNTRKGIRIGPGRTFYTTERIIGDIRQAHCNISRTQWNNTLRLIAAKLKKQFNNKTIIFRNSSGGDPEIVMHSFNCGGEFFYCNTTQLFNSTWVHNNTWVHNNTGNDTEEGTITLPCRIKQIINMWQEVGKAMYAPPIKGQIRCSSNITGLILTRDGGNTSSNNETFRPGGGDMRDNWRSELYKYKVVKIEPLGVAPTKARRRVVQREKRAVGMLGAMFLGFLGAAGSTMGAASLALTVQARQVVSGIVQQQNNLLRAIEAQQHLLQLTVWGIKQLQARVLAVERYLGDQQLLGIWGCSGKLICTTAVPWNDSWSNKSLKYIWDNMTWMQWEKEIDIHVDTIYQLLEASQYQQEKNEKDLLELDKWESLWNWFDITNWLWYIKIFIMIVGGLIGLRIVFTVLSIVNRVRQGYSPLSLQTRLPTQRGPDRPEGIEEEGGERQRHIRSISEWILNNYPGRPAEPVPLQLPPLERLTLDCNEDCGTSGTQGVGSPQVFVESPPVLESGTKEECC

**Q.** O=C(O)/C=C/C(=O)Nc1ccc(C2(c3ccc(NC(=O)/C=C/C(=O)O)cc3)c3ccccc3-c3ccccc32)cc1 was tested. Which IC50 did it give?
**A.** 15 µM (active)

**Q.** For O=C(COc1cccc2ccccc12)Nc1ccc(Cl)cc1C(=O)O, which IC50 is on record?
**A.** 31.3 µM (active)

**Q.** For O=C(O)C(c1ccccc1)N1C(=O)/C(=C\c2ccc(O)c(O)c2)SC1=S (stereo unspecified), which IC50 is on record?
**A.** 13.2 µM (active)

**Q.** For Cc1ccc(Cl)cc1N1CCN(C(=O)Cc2c(C(=O)O)[nH]c3ccc(Cl)cc23)CC1, which IC50 is on record?
**A.** 24.5 µM (active)

**Q.** Which IC50 does the source give for Cc1ccc(N2C(=O)/C(=C/c3ccc(CN(CCC#N)S(C)(=O)=O)o3)C(=O)NC2=S)cc1C here?
**A.** 21.6 µM (active)

**Q.** For COc1ccc2c(c1)cc(C(=O)N/N=C/c1c(O)c(C(=O)O)cc3ccccc13)n2C, which IC50 is on record?
**A.** 7.59 µM (active)
